Assay results: PMC11237612, “Mutation of the peptide-regulated transcription factor ComR for amidated peptide specificity and heterologous function in Lactiplantibacillus plantarum WCFS1” (Microbiology Spectrum, 2024)

System: S. thermophilus ComR containing five mutations (R92G, V205A, S248G, S289K, and I290T)
Test: GFP signal in E. coli expressing five-mutation ComR
Type: cell-based
Conditions: 100 µM peptide, GFP signal (Fig. S3)
Source text: The selection of mutant ComRs with altered specificity highlighted the utility of the screening system built in E. coli. We attempted to further validate this screening system by cloning a version of S. thermophilus ComR containing five mutations (R92G, V205A, S248G, S289K, and I290T), which was reported to have altered specificity for the 8 amino-acid long XIP from S. vestibularis (VPFFMIYY) ([20]).
ComR sensor circuits were constructed on plasmid pACYC184 (American Type Culture Collection #37033) such that ComR activation promoted GFP expression. This was done by assembling synthetic dsDNA fragments (Integrated DNA Technology) using NEBuilder® HiFi DNA Assembly Master Mix (NEB, E2621S). The full sequence of plasmid pAC-J23107*-ComR, on which the ComR mutant library was made is included in supplemental materials. The ComR mutant (K100NNK) library was created by PCR amplifying all but the K100 codon and then assembling it with degenerate oligos (Integrated DNA Technology) using NEBuilder® HiFi DNA Assembly Master Mix (NEB, E2621S). […] Bacteria were incubated in a large radius shaker (Eppendorf S441) at 37°C for 9 hours, then GFP fluorescence was read using a TECAN Spark 20M plate reader. […]

Sequence: VPFFMIYY [S. vestibularis XIP, 8 amino-acid long XIP from S. vestibularis (VPFFMIYY)]
- GFP signal of five-mutation ComR with S. vestibularis XIP: only a slight increase in GFP signal
